Assay results published in paper PMC12663294 (Nature Communications, 2025).
Where two headings read alike, the source gives them in different places.

How the values were obtained:
[1] = target: T1, recombinant An. coluzzii Coeae6g (Anopheles coluzzii, UniProt A0A6E8VQK1); assay: Insecticide inhibition of α-NA hydrolysis by recombinant Coeae6g; format: biochemical; settings: for IC50 (μΜ) (95% CI) of α-NA hydrolysis: 10 min pre-incubation, α-NA at Km, Sf9 homogenate expressing Coeae6g
T1 sequence (A0A6E8VQK1 1-582): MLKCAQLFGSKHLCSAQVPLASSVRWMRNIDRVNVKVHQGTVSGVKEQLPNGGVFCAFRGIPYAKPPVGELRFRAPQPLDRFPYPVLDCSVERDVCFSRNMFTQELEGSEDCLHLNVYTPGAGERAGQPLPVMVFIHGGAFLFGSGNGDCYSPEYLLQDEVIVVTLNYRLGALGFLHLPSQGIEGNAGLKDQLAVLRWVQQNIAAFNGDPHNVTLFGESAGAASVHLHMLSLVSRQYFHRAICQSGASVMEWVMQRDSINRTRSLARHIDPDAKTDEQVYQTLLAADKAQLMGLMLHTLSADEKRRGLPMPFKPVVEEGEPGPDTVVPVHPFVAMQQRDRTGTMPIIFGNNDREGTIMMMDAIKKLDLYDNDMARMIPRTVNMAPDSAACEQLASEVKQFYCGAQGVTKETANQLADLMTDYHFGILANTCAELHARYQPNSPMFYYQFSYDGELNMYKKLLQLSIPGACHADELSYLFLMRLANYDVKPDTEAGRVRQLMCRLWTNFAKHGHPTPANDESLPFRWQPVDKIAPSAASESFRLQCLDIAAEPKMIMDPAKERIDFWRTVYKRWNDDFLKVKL

[2] = system: A11 parental line mosquitoes; assay: WHO tube/adult bioassays; format: in vivo, Anopheles gambiae; settings: exposure for 10 and 15 min, three replicates
[3] = system: GAL4/UAS-AncCoeae6g mosquitoes; assay: WHO tube/adult bioassays
[4] = system: active serine hydrolases (FP-reactive bands, ~62–70 kDa) in An. gambiae homogenates; format: biochemical, Anopheles gambiae (Kisumu strain)
[5] = system: GAL4/UAS-AngCoeae6g mosquitoes; assay: WHO tube/adult bioassays; parameters: species or system Anopheles gambiae; settings: in vivo
[6] = system: GAL4/UAS-AncCoeae6g mosquitoes; settings: in vivo
[7] = target: T1, recombinant An. coluzzii Coeae6g; format: biochemical; settings: for fold increased esterase activity compared to YFP-expressing and uninfected Sf9 cells: resuspended cell pellets expressing Coeae6g; for Km: read-out: Km (95% CI); for Km / Vmax (95% CI): substrate of recombinant Coeae6g (Sf9-Coeae6g)
[8] = system: whole extracts of An. gambiae Coeae6g overexpressing mosquitoes; assay: Total esterase activity of whole mosquito extracts towards model substrates; format: biochemical, Anopheles gambiae

CNC(=O)Oc1cccc2c1OC(C)(C)O2 [Bendiocarb, bendiocarb]
IC50 [1]: 7.27 µM

CC1(C)[C@H](C(=O)O[C@H](C#N)c2cccc(Oc3ccccc3)c2)[C@@H]1C=C(Br)Br [Deltamethrin, deltamethrin]
IC50 [1]: > 450 µM | IC50 (μΜ) (95% CI) of α-NA hydrolysis [1]: no inhibition | Mortality [2]: 100% | Mortality ([3]; exposure for 10 and 15 min, three replicates): 100%

CCOC(=O)CC(SP(=O)(OC)OC)C(=O)OCC (centres unmarked) [Malaoxon, malaoxon]
IC50 [1]: 0.24 µM

CCOC(=O)CC(SP(=S)(OC)OC)C(=O)OCC (centres unmarked) [Malathion, malathion]
IC50 [1]: > 45 µM | IC50 (μΜ) (95% CI) of α-NA hydrolysis [1]: No inhibition

CCN(CC)c1nc(C)cc(OP(=S)(OC)OC)n1 [PM, pirimiphos-methyl]
T-FP labelling of distinct ~90 kDa band [4]: not affected | T-FP labelling of prominent bands at ~62–70 kDa [4]: markedly reduced | IC50 ([4]; read-out: IC₅₀ (FP-TAMRA labelled ~62–70 kDa band intensity)): ~10.6 µM | IC50 (μΜ) (95% CI) of α-NA hydrolysis [1]: No inhibition | Mortality rate [5]: 67% | Mortality rate ([3]; in vivo): 79%

CC1(C)C(C=C(Cl)Cl)C1C(=O)OCc1cccc(Oc2ccccc2)c1 (centres unmarked) [Permethrin, permethrin]
IC50 [1]: 130 µM | Mortality rate [6]: 81.8%

CNC(=O)Oc1ccccc1OC(C)C [Propoxur, propoxur]
IC50 [1]: 3.52 µM

CC(=O)Oc1ccc([N+](=O)[O-])cc1 [p-NPA, p-nitrophenyl acetate]
fold increased esterase activity compared to YFP-expressing and uninfected Sf9 cells [7]: 8-12 fold | fold higher total carboxylesterase activity than control parental mosquitoes [8]: 2.9 fold

CC(=O)Oc1cccc2ccccc12 [α-NA, α-naphthyl acetate]
Km [7]: 68.5 µM | fold increased esterase activity compared to YFP-expressing and uninfected Sf9 cells [7]: 8-12 fold | Vmax (95% CI) [7]: 307.7 nmol min^−1 mg total protein^−1

CC(=O)Oc1ccc2ccccc2c1 [β-NA, β-naphthyl acetate]
Km [7]: 369 µM | fold increased esterase activity compared to YFP-expressing and uninfected Sf9 cells [7]: 8-12 fold | Vmax (95% CI) [7]: 253.0 nmol min^−1 mg total protein^−1 | fold higher total carboxylesterase activity than control parental mosquitoes [8]: 2.3 fold
